Counter-ions that a name gives are not always drawn. Like-named read-outs stand apart in the source and are kept apart here.
Target: T1, His6-AspH315–758 (human aspartate/asparagine-β-hydroxylase, AspH) (Homo sapiens, UniProt Q12797)
T1 construct: N-Terminally His6-tagged human AspH315–758 (His6-AspH315–758) was produced in E. coli BL21 (DE3) cells; made in house; host or cells: E. coli BL21 (DE3), pET-28a(+) vector
T1 sequence (Q12797 315-758): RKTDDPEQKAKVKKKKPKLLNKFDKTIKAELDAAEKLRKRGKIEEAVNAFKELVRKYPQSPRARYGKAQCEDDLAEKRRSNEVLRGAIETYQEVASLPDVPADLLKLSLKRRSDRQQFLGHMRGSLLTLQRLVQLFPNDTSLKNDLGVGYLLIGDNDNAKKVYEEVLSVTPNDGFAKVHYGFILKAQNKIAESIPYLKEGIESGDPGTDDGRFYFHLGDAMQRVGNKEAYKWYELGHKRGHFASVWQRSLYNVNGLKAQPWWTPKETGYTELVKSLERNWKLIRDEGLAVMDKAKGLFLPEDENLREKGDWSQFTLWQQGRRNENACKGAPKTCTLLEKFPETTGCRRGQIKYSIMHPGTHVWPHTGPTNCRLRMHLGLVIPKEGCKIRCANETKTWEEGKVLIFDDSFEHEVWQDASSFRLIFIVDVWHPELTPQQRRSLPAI
Test: SPE-MS AspH inhibition assay (LOPAC screen at fixed 20 μM and IC50 dose-response), hydroxylation of cyclic peptide hFX-CP101–119
Type: biochemical
Conditions: for Plate 5 (% inhibition) / Plate 5 (% conversion): plate 5 (Pfitzer), test compounds at fixed 20 μM; for Plate 5 (% conversion): mean conversion DMSO 32.88

[1] = LOPAC Plate 4, compound at 20 uM, substrate conversion
[2] = LOPAC compound at 20uM, plate 3, conversion of substrate peptide
[3] = LOPAC compound at fixed 20 uM, plate 1, normalised to DMSO and 2,4-PDCA controls
[4] = LOPAC compound at fixed 20 uM, substrate conversion, plate 1
[5] = LOPAC Plate 4, compound at 20 uM, read-out: % inhibition
[6] = LOPAC compound at 20uM, plate 2, conversion of substrate peptide
[7] = LOPAC compound at 20uM, plate 2, normalised to DMSO and 2,4-PDCA controls
[8] = LOPAC Plate 4, compound at 20 uM

Cc1ncc(CNC(=O)N(CCCl)N=O)c(N)n1 [Nimustine hydrochloride]
Plate 3 (% conversion): 38.40%

C[C@H](N[C@@H](CCc1ccccc1)C(=O)O)C(=O)N1CCC[C@H]1C(=O)O.O.O [Enalaprilat dihydrate]
% conversion [1]: 37.37%

O=CN(O)CCCP(=O)([O-])O.[Na+] [Fosmidomycin sodium salt hydrate]
Plate 3 (% conversion) [2]: 34.84%

CCN1CCC[C@H]1CNC(=O)c1c(O)c(Cl)cc(Cl)c1OC.O=C(O)C(O)C(O)C(=O)O (racemic) [S(+)-Raclopride L-tartrate]
% conversion [1]: 11.56%

NCCCCCC(=O)O [6-Aminohexanoic acid]
Plate 1 (% inhibition) [3]: -0.76%
Plate 1 (% conversion) [4]: 36.13%

C[N+]1(C)[C@@H]2CC[C@H]1C[C@@H](OC(=O)C(CO)c1ccccc1)C2 (some centres unmarked) [Atropine methyl nitrate]
Plate 1 (% inhibition) [3]: 2.78%
Plate 1 (% conversion) [4]: 34.94%

COc1ccc(C(=O)NCc2cccnc2)cc1C(=O)NCc1cccnc1 [Picotamide]
% conversion [1]: 30.17%

c1ccc(C2CN3CCSC3=N2)cc1 (centres unmarked) [Tetramisole hydrochloride]
% conversion [1]: 38.57%

CCN(CC)CCNC(=O)c1cc(Cl)c(N)cc1OC.Cl [Metoclopramide hydrochloride]
Plate 3 (% conversion) [2]: 35.20%

COc1cc2ncnc(Nc3cccc(Cl)c3)c2cc1OC [Tyrphostin AG 1478]
% conversion [1]: 38.87%
inhibition at 20 µM [5]: -7.04%

C=Cc1cc(O)cc2nc(-c3ccc(O)c(F)c3)oc12 [ERB-041]
Plate 5 (% inhibition): 30.36%
Plate 5 (% conversion): 25.98%

Nn1nnc2ccccc21 [1-Aminobenzotriazole]
Plate 1 (% inhibition) [3]: -4.79%
Plate 1 (% conversion) [4]: 37.48%

C[C@@H]1O[C@@H](O[C@H]2C[C@@H](O)[C@]3(CO)[C@H]4[C@H](O)C[C@]5(C)[C@@H]([C@@H]6COC(=O)C6)CC[C@]5(O)[C@@H]4CC[C@]3(O)C2)[C@H](O)[C@H](O)[C@H]1O [Dihydroouabain]
Plate 2 (% conversion): 38.16%
Plate 2 (% inhibition) (20 µM): -6.59%

CCCC(C(=O)OCCN(CC)CC)(c1ccccc1)c1ccccc1.Cl [SKF-525A hydrochloride]
Plate 3 (% conversion) [2]: 49.23%

CCCN1CCC[C@@H](c2cccc(S(C)(=O)=O)c2)C1 [OSU6162]
Plate 5 (% inhibition): 28.06%
Plate 5 (% conversion): 26.77%

O=c1nc2[nH]c3ccccc3nc-2c(=O)[nH]1 [Alloxazine]
Plate 1 (% inhibition) [3]: -13.62%
Plate 1 (% conversion) [4]: 40.45%

CC(CN(C)C)CN1c2ccccc2CCc2ccccc21 (centres unmarked) [Trimipramine maleate]
% conversion [1]: 41.64%
inhibition at 20 µM [5]: -15.1%

Cl.c1ccc2sc(C3(N4CCCCC4)CCCCC3)cc2c1 [BTCP hydrochloride]
Plate 1 (% conversion): 41.13%
Plate 1 (% inhibition): -15.64%

CCCCCCCC/C=C\CCCCCCCC(=O)NCc1ccc(O)c(OC)c1 [Olvanil]
Plate 3 (% conversion): 40.29%

CCCCCC(O)CCCC(=O)O.[Na] (centres unmarked) [5-hydroxydecanoic acid sodium]
Plate 2 (% conversion) [6]: 36.96%
Plate 2 (% inhibition) [7]: -3.01%

CC(=O)OCC1=C(C(=O)O)N2C(=O)[C@@H](NC(=O)Cc3cccs3)[C@H]2SC1 [Cephalothin sodium]
Plate 1 (% inhibition) [3]: 9.86%
Plate 1 (% conversion) [4]: 32.56%

CN1C(=O)CCS(=O)(=O)C1c1ccc(Cl)cc1 (centres unmarked) [Chlormezanone]
Plate 2 (% conversion): 39.39%
inhibition at 20 µM (read-out: Plate 2 (% inhibition)): -10.3%

N[C@H](C(=O)O)[C@H](Cc1ccccc1)C(=O)O [L-Beta-threo-benzyl-aspartate]
% conversion [1]: 30.62%

COC(=O)Nc1nc2ccc(C(=O)c3cccs3)cc2[nH]1 [Nocodazole]
Plate 3 (% conversion): 40.67%

C[C@@]12C(=O)OC(=O)[C@]1(C)[C@H]1CC[C@@H]2O1 [Cantharidin]
Plate 1 (% conversion): 17.40%
Plate 1 (% inhibition): 55.02%

O=c1[nH]c(=O)n(C2CCCO2)cc1F (centres unmarked) [Tegafur]
% conversion [1]: 31.54%

C[C@@H](c1ncncc1F)[C@](O)(Cn1cncn1)c1ccc(F)cc1F [Voriconazole]
Plate 1 (% inhibition) [3]: -9.17%
Plate 1 (% conversion) [4]: 38.95%
Plate 5 (% inhibition): -1.65%
Plate 5 (% conversion): 36.88%

NC(CO)(CO)CO.O=C(c1ccccc1)c1ccc2n1CCC2C(=O)O (centres unmarked) [Ketorolac tris salt]
Plate 3 (% conversion) [2]: 36.01%

NN=C(N)N.NN=C(N)N.O=S(=O)(O)O [Aminoguanidine hemisulfate]
Plate 1 (% inhibition) [3]: 3.68%
Plate 1 (% conversion) [4]: 34.64%

Cl.NCCCCC(=O)O [5-Aminovaleric acid hydrochloride]
Plate 1 (% inhibition) [3]: 15.05%
Plate 1 (% conversion) [4]: 30.82%

O=C1NC(=O)/C(=C/c2ccc(-c3ccc(F)cc3O)o2)S1 [AS-252424]
Plate 1 (% inhibition) [3]: -9.30%
Plate 1 (% conversion) [4]: 39.00%

Cn1ccnc1 [1-Methylimidazole]
Plate 3 (% conversion): 20.25%

C#CCN[C@H](C)Cc1ccccc1.Cl [R-(-)-Desmethyldeprenyl hydrochloride]
Plate 2 (% conversion): 39.05%
Plate 2 (% inhibition) (20 µM): -9.24%

O=c1onc2n1-c1cc(Br)ccc1OC2 [NS 2028]
Plate 3 (% conversion) [2]: 35.06%

C[C@]12CCC(=O)C=C1CC[C@@H]1[C@@H]2C(=O)C[C@@]2(C)[C@H]1CC[C@]2(O)C(=O)CO [Cortisone]
Plate 1 (% inhibition) [3]: -8.46%
Plate 1 (% conversion) [4]: 38.71%

O=[N+]([O-])/C=C/c1ccc2c(c1)OCO2 [MNS]
Plate 2 (% conversion) [6]: 25.80%
Plate 2 (% inhibition) [7]: 30.34%

CSC(=N)N.CSC(=N)N.O=S(=O)(O)O [S-Methylisothiourea hemisulfate]
Plate 3 (% conversion) [2]: 35.95%

N[C@@H]1CONC1=O (racemic) [DL-Cycloserine]
Plate 1 (% inhibition) [3]: -17.16%
Plate 1 (% conversion) [4]: 41.64%

N=c1ccn2c(n1)O[C@H]1[C@H](O)[C@@H](CO)O[C@H]12 [Ancitabine hydrochloride]
Plate 1 (% inhibition) [3]: -4.15%

C[N+]1(CCCCC[N+]2(C)CCCC2)CCCC1.O=C([O-])C(O)C(O)C(=O)O.O=C([O-])C(O)C(O)C(=O)O [Pentolinium di[L(+)-tartrate]]
Plate 3 (% conversion) [2]: 9.60%

NC(=O)c1cc[n+](CC2=C(C(=O)[O-])N3C(=O)[C@@H](NC(=O)C(c4ccccc4)S(=O)(=O)[O-])[C@H]3SC2)cc1.O.[Na+] (some centres unmarked) [Cefsulodin sodium salt hydrate]
Plate 1 (% inhibition) [3]: 64.70%
Plate 1 (% conversion) [4]: 14.14%

O=C(NOCC1CC1)c1ccc(F)c(F)c1Nc1ccc(I)cc1Cl [PD184352]
Plate 5 (% inhibition): 28.96%
Plate 5 (% conversion): 26.46%

NS(=O)(=O)c1cc2c(cc1Cl)NCNS2(=O)=O [Hydrochlorothiazide]
Plate 2 (% conversion) [6]: 36.43%
inhibition at 20 µM (LOPAC compound at 20uM, plate 2, normalised to DMSO and 2,4-PDCA controls, read-out: Plate 2 (% inhibition)): -1.41%

CCCN1CCC[C@H](c2cccc(O)c2)C1.Cl [R(+)-3PPP hydrochloride]
% inhibition [8]: 3.51%
% conversion [1]: 35.27%

CN(C)CCCC1(c2ccc(F)cc2)OCc2cc(C#N)ccc21 (centres unmarked) [Citalopram hydrobromide]
Plate 1 (% inhibition) [3]: -13.21%
Plate 1 (% conversion) [4]: 40.31%

CN(C)CCCNC(=O)c1ccc(-c2cc(O)c3ncccc3c2)cc1 [ML324, reference compound]
IC50 (50 nM His6-AspH315–758, 1.0 μM hFX-CP101–119, 3 μM 2OG, 2 μM Fe(II), 50 mM HEPES pH 7.5, 20 °C, mean ± SD, n = 2 (2,4-PDCA n = 10), read-out: IC50): 4.65 ± 1.28 µM

O=C(Nc1cccnc1)N1CCC(Cc2cccc(Oc3ccc(C(F)(F)F)cn3)c2)CC1 [PF-3845]
Plate 5 (% inhibition): -5.26%
Plate 5 (% conversion): 38.10%

O=C(O)c1cccnc1Nc1cccc(C(F)(F)F)c1 [Niflumic acid]
Plate 3 (% conversion) [2]: 32.98%

COc1nc(C)nc(Cl)c1NC1=NCCN1.Cl [Moxonidine hydrochloride]
Plate 3 (% conversion) [2]: 33.12%

CCCCCN(C)CCC(O)(P(=O)([O-])O)P(=O)(O)O.[Na+] [Ibandronate sodium]
% conversion [1]: 30.05%

CCCCCCCCCCCCCCC[C@H](O)[C@H](N)CO (racemic) [DL-erythro-Dihydrosphingosine]
Plate 2 (% conversion) [6]: 62.82%
Plate 2 (% inhibition) [7]: -80.23%

N=C(N)NC(=O)c1nc(Cl)c(N2CCCCCC2)nc1N [5-(N,N-hexamethylene)amiloride]
Plate 1 (% inhibition) [3]: -28.14%
Plate 1 (% conversion) [4]: 45.32%

O=C1Cc2c([nH]c3ccc(Br)cc23)-c2ccccc2N1 [Kenpaullone]
Plate 3 (% conversion) [2]: 35.01%

CN1CCN(CCCN2c3ccccc3Sc3ccc(C(F)(F)F)cc32)CC1 [Trifluoperazine dihydrochloride]
inhibition at 20 µM: -68.5%

C=CCn1c(=O)c2c(nc(-c3ccc(S(=O)(=O)O)cc3)n2C)n(C)c1=O
Plate 1 (% inhibition) [3]: -6.98%
Plate 1 (% conversion) [4]: 38.22%

COc1cccc(NC(=O)/C=C/c2ccc(Cl)cc2)c1 [SB-366791]
% inhibition [8]: 0.24%
% conversion [1]: 36.39%

Cl.O=c1[nH]oc2c1CCNC2 [THIP hydrochloride]
% conversion: 36.67%
% inhibition (20 µM): -0.58%

— PMC7251097, “Aspartate/asparagine-β-hydroxylase: a high-throughput mass spectrometric assay for discovery of small molecule inhibitors” (Scientific Reports, 2020)
